ChEMBL document CHEMBL3627636, “Novel bivalent inhibitors with sub-nanomolar affinities towards human glyoxalase I” (Bioorg Med Chem Lett, 2015)
≈ marks a conversion by molar mass, not a printed value.

Columns and labels:
Lactoylglutathione lyase [1] = target: T1, Lactoylglutathione lyase (Homo sapiens, UniProt Q04760); assay: Inhibition of 6-His tagged recombinant human glyoxalase 1 transfected in Escherichia coli BL21 (DE3) assessed as S-D-lactoylglutathione formation by spectrophotometer
[2] = Inhibition of yeast glyoxalase 1; design: species or system Saccharomyces cerevisiae
[3] = target: Hydroxyacylglutathione hydrolase, mitochondrial (Bos taurus, UniProt Q3B7M2); assay: Inhibition of bovine liver glyoxalase 2
[4] = Solubility of compound; assay type: physicochemical
Lactoylglutathione lyase [5] = target: T1, Lactoylglutathione lyase; assay: Inhibition of human glyoxalase 1

T1 sequence (Q04760 whole entry): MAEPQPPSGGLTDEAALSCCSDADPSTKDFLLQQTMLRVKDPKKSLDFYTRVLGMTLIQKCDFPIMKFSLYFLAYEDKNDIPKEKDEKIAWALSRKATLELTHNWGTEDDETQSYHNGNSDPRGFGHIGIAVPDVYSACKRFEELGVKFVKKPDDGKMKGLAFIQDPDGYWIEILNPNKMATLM

Row | SMILES | Ki (Lactoylglutathione lyase [1]) [nM] | Ki [2] [nM] | Ki [3] [nM] | solubility [4] [mg/mL] | Ki (Lactoylglutathione lyase [5]) [nM]
1 | O=C(O)CNC(=O)C(CSC(=O)N(O)c1ccc(Br)cc1)NC(=O)CCC(NCCC(=O)OCCOCCOCCOCCNC(=O)CCCCCCC(=O)NCCCOCCOCCOCCCNC(=O)CCCCCCC(=O)NCCOCCOCCOCCOC(=O)CCNC(CCC(=O)NC(CSC(=O)N(O)c1ccc(Br)cc1)C(=O)NCC(=O)O)C(=O)O)C(=O)O (stereo unspecified) | 1 | 6900 | 138 | 26 (≈ 12.8 mM) | –
2 | O=C(O)CNC(=O)C(CSC(=O)N(O)c1ccc(Br)cc1)NC(=O)CCC(NCCC(=O)OCCNC(=O)CCNC(=O)CC(=O)NCCNC(=O)CC(=O)NCCC(=O)NCCOC(=O)CCNC(CCC(=O)NC(CSC(=O)N(O)c1ccc(Br)cc1)C(=O)NCC(=O)O)C(=O)O)C(=O)O (stereo unspecified) | 0.3 | 3700 | 81 | 32 (≈ 19.9 mM) | –
3 | CCOC(=O)CCNC(CCC(=O)NC(CSC(=O)N(O)c1ccc(Cl)cc1)C(=O)NCC(=O)O)C(=O)O (stereo unspecified) | – | – | – | – | 46

Further lines, results first:

Row | Ki (Lactoylglutathione lyase [1]) [nM] | Ki [2] [nM] | Ki [3] [nM] | solubility [4] [mg/mL] | Ki (Lactoylglutathione lyase [5]) [nM] | SMILES
4 | – | – | – | – | 330 | NCCC(=O)NC(CCC(=O)NC(CSC(=O)N(O)c1ccc(Cl)cc1)C(=O)NCC(=O)O)C(=O)O (stereo unspecified)
5 | – | – | – | – | 130 | CC(=O)CNC(CCC(=O)NC(CSC(=O)N(O)c1ccc(Cl)cc1)C(=O)NCC(=O)O)C(=O)O (stereo unspecified)
